Data reported in patent US5675003A, “3-ammoniopropenyl cephalosporin compounds as antibacterial agents” (Korea Institute of Science and Technology, priority 1995, dated 1997).
≈ marks a conversion by molar mass, not a printed value.

Assays:
Experiment in all cases: MIC, in vitro agar dilution method
Type in all cases: cell-based
[1] = tested on: Enterobacter cloacae 1321 E; conditions: En.c.2, Enterobacter cloacae 1321 E; agar dilution; read-out: MIC
Protocol: (§1) The MICs of the new cephalosporins of the present invention against Gram-positive and Gram-negative bacteria were determined by an in vitro agar dilution method. For comparisons, the MIC values of ceftazidime are also listed.
(§2) In vitro antimicrobial activity of the cephalosporins (l) (MIC:
En.c.2, Enterobacter cloacae 1321 E.

[2] = tested on: Pseudomonas aeruginosa 1771 M; conditions: P.a.4, Pseudomonas aeruginosa 1771 M; agar dilution; read-out: MIC
Protocol: as §1, §2
P.a.4, Pseudomonas aeruginosa 1771 M;

[3] = tested on: Escherichia coli 1507 E; conditions: E.c.4, Escherichia coli 1507 E
Protocol: as §1, §2
E.c.4, Escherichia coli 1507 E;

[4] = tested on: Enterobacter cloacae P 99; conditions: Enterobacter cloacae, P99
Protocol: as §1, §2
En.c.1, Enterobacter cloacae P 99;

[5] = tested on: Klebsiella oxytoca 1082 E; conditions: K.o., Klebsiella oxytoca 1082 E; agar dilution; read-out: MIC
Protocol: as §1, §2
K.o., Klebsiella oxytoca 1082 E;

[6] = tested on: Escherichia coli TEM; conditions: E.c.3, Escherichia coli TEM
Protocol: as §1, §2
E.c.3, Escherichia coli TEM;

[7] = tested on: Pseudomonas aeruginosa 1592 E; conditions: P.a.2, Pseudomonas aeruginosa 1592 E; agar dilution; read-out: MIC
Protocol: as §1, §2
P.a.2, Pseudomonas aeruginosa 1592 E;

[8] = tested on: Staphylococcus aureus 503; conditions: S.a.3, Staphylococcus aureus 503; agar dilution; read-out: MIC
Protocol: as §1, §2
S.a.3, Staphylococcus aureus 503;

[9] = tested on: Streptococcus pyogenes A 77; conditions: A77; S.p.2, Streptococcus pyogenes A 77; agar dilution; read-out: MIC
Protocol: as §1, §2
S.p.2, Streptococcus pyogenes A 77;

[10] = tested on: Escherichia coli DC0; conditions: E.c.2, Escherichia coli DC0
Protocol: as §1, §2
E.c.2, Escherichia coli DC0;

[11] = tested on: Streptococcus pyogenes 308 A; conditions: S.p.1, Streptococcus pyogenes 308 A; agar dilution; read-out: MIC
Protocol: as §1, §2
S.p.1, Streptococcus pyogenes 308 A;

[12] = tested on: Klebsiella aerogenes 1552 E; conditions: K.a., Klebsiella aerogenes 1552 E; agar dilution; read-out: MIC
Protocol: as §1, §2
K.a., Klebsiella aerogenes 1552 E;

[13] = tested on: Pseudomonas aeruginosa 9027; conditions: P.a.1, Pseudomonas aeruginosa 9027; agar dilution; read-out: MIC
Protocol: as §1, §2
P.a.1, Pseudomonas aeruginosa 9027;

[14] = tested on: E.c.5; conditions: Escherichia coli, E.c.5 (strain not defined)
Protocol: as §1

[15] = tested on: Streptococcus faecium MD; conditions: Enterococcus faecium; S.f., Streptococcus faecium MD; agar dilution; read-out: MIC
Protocol: as §1, §2
S.f., Streptococcus faecium MD;

[16] = tested on: Escherichia coli O55; conditions: E.c.1, Escherichia coli O55
Protocol: as §1, §2
E.c.1, Escherichia coli O55;

[17] = tested on: Staphylococcus aureus 285; conditions: S.a.2, Staphylococcus aureus 285; agar dilution; read-out: MIC
Protocol: as §1, §2
E.c. TEM, S.a. 2, Staphylococcus aureus 285;

[18] = tested on: Pseudomonas eruginosa 1771; conditions: P.a.3, Pseudomonas eruginosa 1771
Protocol: as §1, §2
P.a.3, Pseudomonas eruginosa 1771;

[19] = tested on: Salmonella typhimurium; conditions: Salmonella enterica; S.t., Salmonella typhimurium; agar dilution; read-out: MIC
Protocol: as §1, §2
S.t., Salmonella typhimurium;

[20] = tested on: Staphlococcus aureus SG 511; conditions: S.a.1, Staphlococcus aureus SG 511; agar dilution; read-out: MIC
Protocol: as §1, §2
S.a.1, Staphlococcus aureus SG 511;

Row | SMILES | MIC [1] [µg/mL] | MIC [2] [µg/mL] | MIC [3] [µg/mL] | MIC [4] [µg/mL] | MIC [5] [µg/mL] | MIC [6] [µg/mL] | MIC [7] [µg/mL] | MIC [8] [µg/mL] | MIC [9] [µg/mL] | MIC [10] [µg/mL] | MIC [11] [µg/mL] | MIC [12] [µg/mL] | MIC [13] [µg/mL] | MIC [14] [µg/mL] | MIC [15] [µg/mL] | MIC [16] [µg/mL] | MIC [17] [µg/mL] | MIC [18] [µg/mL] | MIC [19] [µg/mL] | MIC [20] [µg/mL]
1 | CO/N=C(\C(=O)N[C@@H]1C(=O)N2C(C(=O)[O-])=C(/C=C/C[N+]3(C)C[C@@H](O)[C@@H](O)C3)CS[C@H]12)c1csc(N)n1 (stereo partly drawn) [1-a, 7β-[2-(2-Aminothiazol-4-yl)-(Z)-2-methoxyiminoacetamido]-3-[(E)-3-(meso-3,4-dihydroxy-1-methyl-1-pyrrolidinio)-1-propen-1-yl]-3-cephem-4-carboxylate] | 0.013 (≈ 0.0241 µM) | 0.098 (≈ 0.182 µM) | 0.049 (≈ 0.091 µM) | 6.25 (≈ 11.6 µM) | 3.13 (≈ 5.81 µM) | 0.025 (≈ 0.0464 µM) | 3.13 (≈ 5.81 µM) | 0.2 (≈ 0.371 µM) | 0.013 (≈ 0.0241 µM) | 0.049 (≈ 0.091 µM) | 0.013 (≈ 0.0241 µM) | 0.025 (≈ 0.0464 µM) | 3.13 (≈ 5.81 µM) | 0.049 (≈ 0.091 µM) | 50 (≈ 92.8 µM) | 0.013 (≈ 0.0241 µM) | 0.78 (≈ 1.45 µM) | 1.56 (≈ 2.9 µM) | 0.013 (≈ 0.0241 µM) | 0.39 (≈ 0.724 µM)
2 | CO/N=C(\C(=O)N[C@@H]1C(=O)N2C(C(=O)[O-])=C(/C=C/C[N+]3(C)CCC(O)CC3)CS[C@H]12)c1csc(N)n1 (stereo partly drawn) [1-g, 7β-[2-(2-Aminothiazol-4-yl)-(Z)-2-methoxyiminoacetamido]-3-[(E)-3-(4-hydroxy-1-methyl-1-piperidinio)-1-propen-1-yl]-3-cephem-4-carboxylate] | 0.025 (≈ 0.0466 µM) | 0.2 (≈ 0.373 µM) | 0.098 (≈ 0.183 µM) | 3.13 (≈ 5.83 µM) | 3.13 (≈ 5.83 µM) | 0.049 (≈ 0.0913 µM) | 3.13 (≈ 5.83 µM) | 0.2 (≈ 0.373 µM) | 0.013 (≈ 0.0242 µM) | 0.049 (≈ 0.0913 µM) | 0.013 (≈ 0.0242 µM) | 0.025 (≈ 0.0466 µM) | 6.25 (≈ 11.6 µM) | 0.049 (≈ 0.0913 µM) | 50 (≈ 93.2 µM) | 0.025 (≈ 0.0466 µM) | 0.78 (≈ 1.45 µM) | 1.56 (≈ 2.91 µM) | 0.049 (≈ 0.0913 µM) | 0.39 (≈ 0.727 µM)
3 | CON=C(C(=O)NC1C(=O)N2C(C(=O)[O-])=C(C=CC[N+]3(C)C4CCC3CC(O)C4)CSC12)c1csc(N)n1 (stereo not drawn) [1-i, 7β-[2-(2-Aminothiazol-4-yl)-(Z)-2-methoxyiminoacetamido]-3-[(E)-3-tropinio-1-propen-1-yl]-3-cephem-4-carboxylate] | 0.025 (≈ 0.0444 µM) | 0.2 (≈ 0.355 µM) | 0.098 (≈ 0.174 µM) | 6.25 (≈ 11.1 µM) | 1.56 (≈ 2.77 µM) | 0.025 (≈ 0.0444 µM) | 3.13 (≈ 5.56 µM) | 0.2 (≈ 0.355 µM) | 0.013 (≈ 0.0231 µM) | 0.049 (≈ 0.0871 µM) | 0.013 (≈ 0.0231 µM) | 0.025 (≈ 0.0444 µM) | 6.25 (≈ 11.1 µM) | 0.049 (≈ 0.0871 µM) | 50 (≈ 88.9 µM) | 0.025 (≈ 0.0444 µM) | 0.78 (≈ 1.39 µM) | 1.56 (≈ 2.77 µM) | 0.049 (≈ 0.0871 µM) | 0.39 (≈ 0.693 µM)
4 | CO/N=C(\C(=O)N[C@@H]1C(=O)N2C(C(=O)[O-])=C(/C=C/C[N+]3(C)C[C@H](O)[C@@H](O)C3)CS[C@H]12)c1csc(N)n1 [1-b, 7β-[2-(2-Aminothiazol-4-yl)-(Z)-2-methoxyiminoacetamido]-3-[(E)-3-(3S,4S-dihydroxy-1-methyl-1-pyrrolidinio)-1-propen-1-yl]-3-cephem-4-carboxylate] | 0.013 (≈ 0.0241 µM) | 0.098 (≈ 0.182 µM) | 0.049 (≈ 0.091 µM) | 3.13 (≈ 5.81 µM) | 0.78 (≈ 1.45 µM) | 0.025 (≈ 0.0464 µM) | 1.56 (≈ 2.9 µM) | 0.2 (≈ 0.371 µM) | 0.007 (≈ 0.013 µM) | 0.049 (≈ 0.091 µM) | 0.013 (≈ 0.0241 µM) | 0.025 (≈ 0.0464 µM) | 3.13 (≈ 5.81 µM) | 0.049 (≈ 0.091 µM) | 50 (≈ 92.8 µM) | 0.025 (≈ 0.0464 µM) | 0.78 (≈ 1.45 µM) | 1.56 (≈ 2.9 µM) | 0.025 (≈ 0.0464 µM) | 0.39 (≈ 0.724 µM)
5 | CO/N=C(\C(=O)N[C@@H]1C(=O)N2C(C(=O)[O-])=C(/C=C/C[N+]3(C)CC[C@@H](O)[C@H](O)C3)CS[C@H]12)c1csc(N)n1 (relative stereo) [1-f, 7β-[2-(2-Aminothiazol-4-yl)-(Z)-2-methoxyiminoacetamido]-3-[(E)-3-(3,4-trans-dihydroxy-1-methyl-1-piperidinio)-1-propen-1-yl]-3-cephem-4-carboxylate] | 0.025 (≈ 0.0452 µM) | 0.098 (≈ 0.177 µM) | 0.049 (≈ 0.0887 µM) | 12.5 (≈ 22.6 µM) | 3.13 (≈ 5.66 µM) | 0.025 (≈ 0.0452 µM) | 1.56 (≈ 2.82 µM) | 0.2 (≈ 0.362 µM) | 0.013 (≈ 0.0235 µM) | 0.049 (≈ 0.0887 µM) | 0.013 (≈ 0.0235 µM) | 0.025 (≈ 0.0452 µM) | 3.13 (≈ 5.66 µM) | 0.049 (≈ 0.0887 µM) | 50 (≈ 90.5 µM) | 0.025 (≈ 0.0452 µM) | 0.78 (≈ 1.41 µM) | 0.78 (≈ 1.41 µM) | 0.025 (≈ 0.0452 µM) | 0.39 (≈ 0.706 µM)
6 | CO/N=C(\C(=O)N[C@@H]1C(=O)N2C(C(=O)[O-])=C(/C=C/C[N+](C)(CCO)CCO)CS[C@H]12)c1csc(N)n1 [1-d] | 0.013 (≈ 0.024 µM) | 0.098 (≈ 0.181 µM) | 0.098 (≈ 0.181 µM) | 6.25 (≈ 11.6 µM) | 0.78 (≈ 1.44 µM) | 0.013 (≈ 0.024 µM) | 1.56 (≈ 2.89 µM) | 0.2 (≈ 0.37 µM) | 0.004 (≈ 0.0074 µM) | 0.049 (≈ 0.0906 µM) | 0.013 (≈ 0.024 µM) | 0.025 (≈ 0.0462 µM) | 3.13 (≈ 5.79 µM) | 0.049 (≈ 0.0906 µM) | 50 (≈ 92.5 µM) | 0.013 (≈ 0.024 µM) | 0.78 (≈ 1.44 µM) | 0.78 (≈ 1.44 µM) | 0.025 (≈ 0.0462 µM) | 0.39 (≈ 0.721 µM)
7 | CO/N=C(\C(=O)N[C@@H]1C(=O)N2C(C(=O)[O-])=C(/C=C/C[N+]3(C)CCCCC3CO)CS[C@H]12)c1csc(N)n1 (some centres unmarked) [1-h] | 0.013 (≈ 0.0236 µM) | 0.098 (≈ 0.178 µM) | 0.049 (≈ 0.089 µM) | 3.13 (≈ 5.68 µM) | 1.56 (≈ 2.83 µM) | 0.025 (≈ 0.0454 µM) | 3.13 (≈ 5.68 µM) | 0.2 (≈ 0.363 µM) | 0.007 (≈ 0.0127 µM) | 0.049 (≈ 0.089 µM) | 0.013 (≈ 0.0236 µM) | 0.025 (≈ 0.0454 µM) | 6.25 (≈ 11.3 µM) | 0.049 (≈ 0.089 µM) | 25 (≈ 45.4 µM) | 0.013 (≈ 0.0236 µM) | 0.39 (≈ 0.708 µM) | 1.56 (≈ 2.83 µM) | 0.025 (≈ 0.0454 µM) | 0.39 (≈ 0.708 µM)
